# Reference: the METLIN SMRT retention time set (Domingo-Almenara et al. 2019)
# Assay: gradient 5% acetonitrile 3 min, to 50% in 2 min, to 85% in 15 min, held 3 min, 100 µL/min
# Conditions: column: Zorbax Extend-C18 2.1 x 50 mm; eluents: water / acetonitrile, 0.1% formic acid
# Outline: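 The mobile phases were water and acetonitrile, each with 0.1% formic acid, pumped at 100 μL/min through a Zorbax Extend-C18 column (2.1 × 50 mm, 1.8 μm). Pure standards were injected as mixtures of ~100 molecules and detected by a quadrupole time-of-flight mass spectrometer in positive and negative ionization mode. Retention time came from computationally picked adduct peaks, each inspected by hand.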
row,RP-LC retention time [s],SMILES
1,793,O=C(c1ccc(-c2noc(C3CC3)n2)cc1)N1CCN(c2nc3cccnc3o2)CC1
2,810,Cc1ccn2c(Nc3ccccc3C)c(-c3ccc(Cl)cc3)nc2c1
3,1190,Cc1sc(NC(=O)c2cccc(Cn3cc(Br)cn3)c2)nc1-c1ccccc1
4,922,CCOC(=O)c1ccc(NC(=O)Cn2cccc(-c3nc(-c4ccc(F)cc4)no3)c2=O)cc1
5,726,COC(=O)c1ncn2c1C(=O)N(c1ccccc1C)C(C)(C(=O)NCc1ccc(C)cc1)C2 (configuration not stated)
6,1060,COc1cc(NC(=O)Cn2c(C)nc3c(sc4nc(-c5ccccc5)ccc43)c2=O)cc(OC)c1
7,799,O=C(Nc1cccc(F)c1)C1CC(=O)N(CCc2c[nH]c3ccc(F)cc23)C1 (configuration not stated)
8,1080,Cc1cc(Cl)ccc1S(=O)(=O)N1CCC(OC2CCN(c3ccccc3)C2=O)CC1 (configuration not stated)
9,632,CCC1CN(C(=O)N2CCC(C(=O)NCCCN3CCOCC3)CC2)c2ccccc2O1 (configuration not stated)
10,780,Cc1nc2c(ccc3nc(NC(=O)CN4C(=O)c5ccccc5C4=O)sc32)s1
11,627,CCc1nc2cc3c(cc2n1CC(=O)Nc1ccccc1OC)OCCO3
12,812,CCOc1ccc(C(=O)N2CCN(c3cc(-c4cccs4)[nH]n3)CC2)cc1
13,667,CCOCCOC1CCN(C(=O)c2ccco2)CC1
14,1080,CCOc1ccc(NC(=O)c2cc(S(=O)(=O)N3CCCC(C)C3)cn2C)cc1 (configuration not stated)
15,834,COc1ccc(CNC(=O)C2CC(=O)N(CCc3c[nH]c4ccc(Cl)cc34)C2)cc1 (configuration not stated)
16,1020,CCN(Cc1ccccc1)C(=O)Cn1cc2c(n1)CCCCCC2
17,908,Cc1ccccc1CC(=O)Nc1nnc(SCc2nnc(-c3ccccc3)o2)s1
18,607,CCOC(=O)c1ccc2nc(C)cc(NC(=O)c3cccs3)c2c1
19,810,CCn1nc(CNC(=O)C(C)Oc2ccccc2OC)c2ccccc21 (configuration not stated)

row,RP-LC retention time [s],SMILES
1,779,Cc1nnc(-c2ccc3ccn(CC(=O)NCc4ccccc4Cl)c3c2)o1
2,770,CC(=O)c1cccc(S(=O)(=O)NC(C)Cc2ccco2)c1 (configuration not stated)
3,574,CCCN1CCN(CCCNC(=O)c2sc3ncccc3c2-n2cccc2)CC1
4,761,CN1c2ccccc2C(=O)NC12CCN(C(=O)Nc1ccccc1Cl)CC2
5,707,CCC(NC(=O)c1cn2ccc(C)cc2n1)c1ccc(OC)cc1 (configuration not stated)
6,724,CN(C)c1cnc(-n2cc(NC(=O)CCCc3ccccc3)cn2)nc1
7,726,CCn1cnc(S(=O)(=O)N2CCCC(C(=O)Nc3ccccc3)C2)c1 (configuration not stated)
8,683,Cc1ccc(C(CNC(=O)c2cc(-c3ccccc3)on2)N(C)C)o1 (configuration not stated)
9,827,CCCn1cc(CCNC(=O)c2cc(C)ccc2C)c2cccnc21
10,723,O=C(NC1CCCCC1)C1CCc2nc(N3CCCCC3)ncc2C1 (configuration not stated)
11,992,CCn1cc(C(=O)Nc2cc(OC)cc(OC)c2)c(S(=O)(=O)N2CCSCC2)n1
12,973,O=C(NC1CCCCCC1)c1ccc2ccnc(N3CCN(c4ccccc4F)CC3)c2c1
13,666,CCCNc1cc(N2CCC(CCC(=O)NCc3ccccc3)CC2)ncn1
14,590,Cc1nc(Nc2ccc(F)cn2)sc1C(=O)N1CCC(C(N)=O)(N2CCCCC2)CC1
15,1040,COc1ccc(C)cc1NC(=O)c1cc(C)n2nc(C)cc2n1
16,652,Cc1cccc(C)c1N1CC(c2nc3ccccc3n2CC(=O)N2CCOCC2)CC1=O (configuration not stated)
17,918,CCN1C(=O)c2cccnc2Sc2cc(NC(=O)c3ccc(C)cc3C)ccc21
18,911,COC(=O)Cn1nc2c(-c3nc(-c4ccc(Cl)cc4)no3)cccn2c1=O
